Data reported in ChEMBL document CHEMBL5543135, “Design and Synthesis of Novel Macrocyclic Derivatives as Potent and Selective Cyclin-Dependent Kinase 7 Inhibitors” (J Med Chem, 2024).

What was measured:
[1] = in vitro; conditions: human, liver microsomes
[2] = in vitro; conditions: mouse, liver microsomes

half-life at 1 h, 1 µM [1] [min] | half-life at 1 h, 1 µM [2] [min] | Compound
> 186 | 105 | CC(C)c1cnn2c(NCc3ccccc3)cc(NC[C@H]3CCNC[C@@H]3O)nc12 [CT-7001]
16.9 | 27.7 | COC1CCCC2(CCNCC2)CNc2nc(n3ncc(C(C)C)c3n2)NCc2ccccc2OC1 (centres undefined)
